A word on the boiling point: it is the temperature at which the vapour pressure of the liquid equals the pressure above it. A word on the melting point: it is the temperature of the solid-liquid transition.

Conditions in one data set: not given
The compound `C[Si](Cl)(Cl)Cl` displayed a boiling point of 65.6 °C, a log10 vapour pressure (mmHg) of 2.22 and a melting point of -90 °C.
`CC(C)C(C)C` registered a boiling point of 57.9 °C, a log10 vapour pressure (mmHg) of 2.37 and a melting point of -129 °C.
The compound `CC(CCc1ccccc1)NCC(O)c1ccc(O)c(C(N)=O)c1` (stereo not given) yielded a melting point of 188 °C.
`Brc1cc(Br)c(Br)c(Br)c1` gave a boiling point of 329 °C and a melting point of 99.5 °C.
As to `CCOc1ccc([Si](C)(C)CCCc2ccc(F)c(Oc3ccccc3)c2)cc1`, the log10 vapour pressure (mmHg) was -7.73.
Consider `CC1=NN(c2ccc(C)cc2)C(=O)C1`, for which the melting point stood at 138 °C.
For `CCC(C)NC(C)CC` (stereo not given), the boiling point turned out to be 135 °C and the ready biodegradability entry is given as “not readily biodegradable”.
With `CCCCCC(=O)Cl`, the boiling point stood at 153 °C and the melting point was -87 °C.
On to `CN(C)CC(O)c1ccc(O)c(O)c1` (stereo not given), for which the melting point was found to be 149 °C.
In turn, `CC1=C(/C=C/C(C)=C/C=C/C(C)=C/C(=O)O)C(C)(C)CCC1` returned a melting point of 181 °C.
Turning to `C#CC(C)(O)CC` (stereo not given), the boiling point turned out to be 120 °C, the log10 vapour pressure (mmHg) is 0.72, the melting point came out at 30.5 °C and the ready biodegradability entry is reported as “readily biodegradable”.
`Cc1ccc(N=Cc2ccccc2)cc1` gave a boiling point of 318 °C and a melting point of 35 °C.
The compound `CC(C)=CC(=O)NS(=O)(=O)c1ccc(N)cc1` had a melting point of 184 °C.
`O=C1CCc2ccccc2C1` returned a boiling point of 237 °C and a melting point of 18 °C.
`CC(C)(C)OC(=O)CCl` registered a boiling point of 150 °C.
The compound `CCCCCCC(Cl)Cl` returned a boiling point of 191 °C.
Regarding `COc1ccc(-c2cc(=O)c3c(O)c(OC)c(O)cc3o2)cc1`, the melting point stood at 221 °C.
Same read-out and setting: then `COc1ccccc1OP(=O)(Oc1ccccc1OC)Oc1ccccc1OC`, with 91 °C.
For `C[Si]1(C)N[Si](C)(C)N[Si](C)(C)N1`, the boiling point was 188 °C and the melting point was -10 °C.
`c1ccc2sc(SN3CCOCC3)nc2c1`: the log10 vapour pressure (mmHg) is -5.48, the melting point amounted to 85 °C and the ready biodegradability result is “not readily biodegradable”.
`O=C1CCOc2ccccc21` yielded a melting point of 36.5 °C.
With `CN1C(=O)CCS(=O)(=O)C1c1ccc(Cl)cc1` (stereo not given), the melting point is 116 °C.
Consider `c1ccc(O[Si](Oc2ccccc2)(Oc2ccccc2)Oc2ccccc2)cc1`, for which the boiling point was found to be 417 °C and the melting point amounted to 49 °C.
The compound `Oc1c(Br)cc(Br)c2cccnc12` returned a melting point of 196 °C.
`CCc1cc(Cc2cc(CC)cc(C(C)(C)C)c2O)c(O)c(C(C)(C)C)c1` came in with a melting point of 120 °C.
`Cc1cccc2cc[nH]c12`: the boiling point is 266 °C and the melting point turned out to be 85 °C.
The matching figures for `Cc1cc(Cl)c(C)cc1Cl`: 222 °C and 71 °C.
Take `CCCC(=O)Oc1c(Br)cc(C#N)cc1Br`: the log10 Koc (L/kg) is 3.03.
Regarding `Cc1ncc(CO)c(CO)c1O.Cl`, the melting point stood at 207 °C.
`Cn1cnc([N+](=O)[O-])c1Sc1ncnc2nc[nH]c12` returned a melting point of 244 °C.
With `C=CC(F)(Cl)C(F)(F)Br` (stereo not given), the boiling point is 99.5 °C.
Consider `CCCCCC(C)Br` (stereo not given), for which the boiling point was determined as 166 °C, the log10 vapour pressure (mmHg) is 0.358 and the melting point turned out to be 47 °C.
For the compound `CCC1(C2=C[C@H]3CC[C@@H](C2)C3)C(=O)NC(=O)NC1=O`, the melting point was 213 °C.
Turning to `O=[N+]([O-])c1c(O)cccc1O`, the melting point came to 82 °C and the ready biodegradability entry is reported as “readily biodegradable”.
In the case of `O=C(Cl)c1ccco1`, the boiling point came to 173 °C and the melting point is -2 °C.
As to `O=C(O)Cc1cccc2ccccc12`, the log10 Koc (L/kg) was determined as 2.2, the melting point is 135 °C and the ready biodegradability result is “not readily biodegradable”.
As to `COc1cc(-c2coc3cc(O)c(OC)c(O)c3c2=O)cc(O)c1OC`, the melting point is 185 °C.
Take `c1ccc(-c2cnc(-c3ccccc3)o2)cc1`: the boiling point was found to be 360 °C and the melting point worked out at 74 °C.
Regarding `C=CCSSCC=C`, the boiling point turned out to be 188 °C.
Compound `CC(=O)S[C@H]1CC(=O)C=C2C[C@@H](SC(C)=O)[C@@H]3[C@H](CC[C@@]4(C)[C@H]3CC[C@]4(C)O)[C@]21C` displayed a melting point of 206 °C.
`BrCC=Cc1ccccc1`: the melting point stood at 34 °C.
`CC1CC(C)C(C)C1` (stereo not given) had a boiling point of 117 °C and a melting point of -132 °C.
As for `Nc1ccc(N=Nc2ccccc2)c(N)n1`, the log10 Koc (L/kg) is 2.32 and the melting point worked out at 139 °C.
With `CP(=O)(c1ccccc1)c1ccccc1`, the melting point worked out at 113 °C.
Same read-out and setting: under `Nc1cccc(-c2cccc(N)c2)c1` stands 93.5 °C; under `CC(=O)OC[C@H]1O[C@@H](n2ncc(=O)[nH]c2=O)[C@H](OC(C)=O)[C@@H]1OC(C)=O`, 100 °C.
`CCCC(=O)c1ccccc1` came in with a boiling point of 228 °C and a melting point of 12 °C.
Compound `FC(F)(Cl)C(F)(F)C(F)(F)C(F)(F)C(F)(F)C(F)(F)C(F)(F)C(F)(F)Cl` had a boiling point of 151 °C.
Take `C#CC(O)c1ccccc1` (stereo not given): the melting point amounted to 22 °C.
On to `CC(Cl)C(C)(C)Cl` (stereo not given), for which the boiling point stood at 129 °C.
Same read-out and setting: under `CCOC(=O)C1(C(=O)OCC)CCC1` stands 224 °C.
Regarding `CCc1cc(CC)c(CC)c(CC)c1CC`, the boiling point was determined as 277 °C.
In turn, `Cc1cccc(O)c1` displayed a boiling point of 202 °C, a log10 Henry constant (atm·m³/mol) of -6.07, a log10 vapour pressure (mmHg) of -0.959 and a melting point of 11.8 °C. In addition, the ready biodegradability result is “readily biodegradable”.
For `CCC(CC)COCCC(=O)O`, the boiling point turned out to be 343 °C and the melting point was found to be 32.5 °C.
With `COc1cccc(O)c1O`, the melting point stood at 42.8 °C.
On the same count and under the same terms, under `O=C(O)c1c(F)ccc(F)c1F` stands 130 °C; under `Cc1c(C)c(O)c(C)c(C)c1O`, 233 °C.
The compound `CCCCF` showed a boiling point of 32.5 °C, a log10 vapour pressure (mmHg) of 2.76 and a melting point of -134 °C.
In the case of `Nc1ccc2ccccc2c1N=Nc1ccccc1`, the melting point came out at 103 °C.
`CCN=C=S` came in with a boiling point of 132 °C, a log10 vapour pressure (mmHg) of 1.06 and a melting point of -5.9 °C.
Turning to `NCCOB(c1ccccc1)c1ccccc1`, the melting point was 193 °C.
The same measure, in the same setting: under `O=[N+]([O-])c1ccccc1Sc1ccccc1` stands 82 °C.
Compound `CCCCCCCCCCCC(=O)O` came in with a boiling point of 299 °C, a log10 vapour pressure (mmHg) of -4.8 and a melting point of 43.2 °C.
In the case of `NC(=O)c1ccc(N)nc1`, the melting point worked out at 246 °C.
The same measure, in the same setting: then `CN1C(=O)C(=O)c2ccccc21`, with 132 °C.
Compound `Nc1ccccc1C(F)(F)F` displayed a boiling point of 187 °C and a melting point of 35.5 °C.
`Oc1ccc(Nc2ccc(O)cc2)cc1` registered a melting point of 174 °C.
Take `CC(C)(C)NC[C@H](O)COc1nsnc1N1CCOCC1`: the melting point came out at 202 °C.
`Cc1ccc(S(=O)(=O)Nc2ccccc2C)cc1`: the melting point worked out at 110 °C.
`c1ccc2c(c1)cc1ccc3cccc4c5ccccc5c2c1c34` yielded a melting point of 162 °C.
With `CC(C)=CCC/C(C)=C/C=C/C(C)=C/C=C/C(C)=C/C=C/C=C(C)/C=C/C=C(C)/C=C/C1C(C)=CCCC1(C)C` (stereo not given), the melting point was 140 °C.
As for `O=C(OCCOC(=O)C(Cl)(Cl)Cl)C(Cl)(Cl)Cl`, the melting point came out at 40 °C.
Still for that read-out and setting: under `N=C(N)NC(=N)NCCc1ccccc1` stands 176 °C.

Staying with this data set, now noted: fish.
`O=C(O)Cc1cccc2ccccc12` had a log10 BCF of 0.47.
Same read-out and setting: under `CCCCCCCCCCCC(=O)O` stands 2.4.

These data come from the OPERA property sets (Mansouri et al. 2018).
